# Where no end group is shown, it is not given here. [ ]: non-standard residue; d: D form.
# Key:
# [1] = test system: porcine left anterior descending coronary artery; assay: Blood vessel contraction measurement
# Experimental: Dissected porcine hearts (260-390 g) were transported from local slaughterhouse to the laboratory in ice-cold Krebs-Henseleit solution (119 mM NaCl, 23.8 mM NaHCO3, 3 mM KCl, 1.14 mM NaH2PO4, 1.63 mM CaCl2, and 16.5 mM glucose). Left anterior descending coronary artery and great cardiac vein were isolated. Part of each blood vessel was used immediately after Isolation for contraction assays while part of it was kept frozen in liquid nitrogen for the membrane preparation. In some experiments blood vessels in which endothelium was mechanically removed were used. The same procedure was used also for the preparation of human umbilical blood vessels; umbilical cords were obtained from Obstetric Clinic of Ljubljana Clinical Center, Slovenia.
# The measurements were performed as already described (20). Rings (5 mm wide) of blood vessels were cut and mounted into 10 ml tissue chamber filled with Krebs-Henseleit solution (37° C.; pH=7.4) which was oxygenated with the mixture of ^95% O2 and 5% CO2. Initial tension of 50 mN was applied and after equilibration 30 mM KCl was added to obtain stable Isometric contraction. The presence of endothelium was verified with substance P. After washing out of KCl and substance P and after the equilibration of the system was restored, test peptide was added into the tissue chamber and blood vessel contraction was recorded.
# pancreatic islets = assay: Insulin release from isolated pancreatic islets; assay type: cell-based, rat
# Experimental: Effects of the peptides on insulin secretion were assessed in pancreatic islets from male Wistar rats weighing 200-250 g. Islets were isolated aseptically by colagenase digestion, and then cultured overnight at 37° C. in RPMI 1640 culture medium supplemented with 10% heat-inactivated fetal calf serum. After culturing, analysis of insulin secretion was performed by incubation at 37° C. for 1 h in batches of 3 islets, each in 300 μl of Krebs-Ringer bicarbonate buffer with 10 mM Hepes and 2 mg/ml bovine serum albumin, pH 7.4. The incubation medium contained either 3.3 or 16.7 mM glucose, with or without peptide. In one experimental series, batches of 5×10^5 Rin m5F cells were incubated under similar conditions, except that glucose was omitted from the medium. Aliquots of the incubation medium were taken for radioimmunoassay of Insulin. Insulin secretion is expressed as IU insulin/islet/h and IU insulin/5×10^5 cells/h, respectively. Statistical significance was evaluated with the Student's t-test with p<0.05 regarded as significant
# [2] = test system: N2A mouse neuroblastoma cells; assay: Cellular internalisation assay of fluorescein-labelled APP and PS peptides; assay type: cell-based; settings: for cellular internalisation / cellular localisation: 10 μM, 37°; for cellular internalisation: 60 min
# Experimental: Mouse neuroblastoma cells, N2A, were cultivated in Dulbecco's minimal essential medium with Glutamax-I, supplemented with 10% (v/v) fetal bovine serum, penicillin (100 U/ml) and streptomycin (100 μg/ml).
# The cells used for Internalisation were seeded out on round glass coverslips in 24well plates. One day post seeding, the cells were semi confluent, and the medium was changed to serum-free medium. The fluorescein-labelled peptides were added, with a final concentration of 10 μM. After 60 min of incubation at 37°, the cells were washed 3 times with 1 ml of Hepes-Krebbs-Ringer-(HKR) buffer and fixed with 3% paraformaldehyde solution in phosphate-buffered saline solution (PBS) for 10 minutes. The cells were then washed 3 times with 1 ml of HKR-buffer, and the coverslips were mounted and sealed for microscopy studies.
# The cell type used for the internalisation assays with the fluorescein'tagged peptides was N2A mouse neuroblastoma cells. This cell-line is commonly used in association with Alzheimer's disease studies, and serves as a good model cell-line for these internalisation assays where peptides derived from proteins involved in Alzheimer's disease were examined. These Internalisation assays were performed at 37° C., therefore the internalisation by endocytosis cannot be excluded.
# [3] = In vivo effect of GOP on insulin release and blood glucose level; set-up: species or system Wistar rats
# Experimental: Healthy male Wistar rats, weighing approximately 250 g, were fasted over-night. After an initial blood sample obtained by incision of the distal tail vein (0 min), GOP (M528, 100 nmol/kg; n=4) was injected intraperitoneally, followed by another i.p. injection of glucose (1 g/kg). Control rats (n=4) were injected with saline and glucose. Additional blood samples were taken from the tail vein after 10 and 30 min. Blood glucose levels were determined by a glucose oxidase method and plasma insulin levels by radioimmunoassay.
# [4] = test system: human Bowes melanoma cells; assay: Cellular penetration of biotin-labelled peptide; assay type: cell-based
# Experimental: The medium containing serum was exchanged for a serum-free medium and water solution of the peptide was added directly into the medium to reach the concentration of 10 μM. A negative control was always used, because living cells all the time have some biotin inside. To control cells pure water instead peptide solution were added, and further handled alike all other. The cells were incubated for 1 h at 37° C. or 4° C. in 5% CO2 enriched air. The cells were washed three times with PBS, fixed and permeabilised with methanol for 10 min at −20° C., washed again with PBS and Incubated for 1 h in a 5% (w/v) solution of fat-free milk in PBS in order to decrease non-specific binding. The peptides were visualised by staining with 0.1 μM streptavidin-FITC in the same solution for 1 hour at room temperature. The cell nuclei were visualised by staining with DNA with Hoechst 33258 (0.5 μg/ml) for 5 min, thereafter the coverslips were washed 3 times with PBS and mounted in 20% glycerol in PBS. The images were obtained by Zeiss Axioplan 2 microscope (Carl Zeiss Inc., Germany).
# Bowes cells = assay: Peptide uptake in attached Bowes cells, fluorescence in cell lysate; assay type: cell-based, human; settings: Fluoresceinyl peptide, 5 μM, 30 min, 37° C.
# Experimental: Cells were detached with trypsin (Invitrogen, Sweden), dissolved in culture media and centrifuged (1000×g for 10 min at RT). The cells were resuspended, counted and aliqoted in HKR on Ice, 300 000 cells/tube. Abz-labelled peptide was incubated for 15 and 30 min together with the cells in suspension, on a shaking 37° C. water bath. To stop the uptake or outflow, trypsin solution was added for 3 min. The cells were spun down at 1000×g for 10 min at 4° C. The pellets were resuspended in HKR for fluorescence detection, or for the outflow samples, incubated again with peptide-free HKR. Fluorescence was read at 320/420 nm on a Spectramax Gemini XS (Molecular Devices, Calif.). The intracellular concentrations were calculated from a standard curve of Abz-labelled peptides. […] Additionally, a varianty of the same assay was applied: the cells were seeded in a 24well plate at a density of 100 000 cells/well, the day before. Cells are incubated at 5 μM peptide concentration for 30 min at 37° C. Trypsin treated, washed and lysed in hydrochloric acid. The fluorescence was measured as described for the suspension assay.
# Human melanoma cells Bowes, were cultured in MEM using standard cell culturing techniques, and seeded at density of 100 000 cells/well in 24 well-plates the day before experiments were conducted.
# N2A cells = assay type: cell-based, mouse
# LoVo cells = assay: Internalisation of biotinylated selCPPs, fluorescence microscopy; assay type: cell-based, human
# Experimental: One aspect of the present invention thus comprises a method for screening the cellular uptake of a broad variety of CPPs in vitro, wherein cells are grown on glass cover slips to suitable, such as 50%, density, whereupon the media is changed to serum free and a blotinylated peptide solution is added. The cells are then incubated, washed, fixed and the peptides are visualised by staining with, e.g. avidin-FITC, or streptavidin-TRITC, and the cell nuclei are counterstained, e.g. with Hoechst. Images are preferably obtained with a fluorescence microscope and evaluated.
# FIG. 5. Example of inactivated selCPP. Internalisation of YTA-2 (A) compared to YTA-2 ps (B) In LoVo cells, both biotynilated peptides detected by TRITC-avidin at 37° C.
# The cells were grown on round glass cover slips (12 mm, GTF, Sweden) in a 24-well plate to approximately 50% confluence. The media was changed to serum free and the biotinylated peptide solutions were added. The cells were incubated for 30 min at 37 or 4° C. The cells were washed twice with PBS, fixed with 4% paraformaldehyde solution 15 min at room temperature (dark) and then permeabilised in 30 mM HEPES buffer containing 0.5% w/v Triton X-100, 3 min on Ice. Sites for unspecific binding were blocked In PBS containing 3% (w/v) bovine serum albumin, overnight at 4° C. The peptides were visualised by staining with avidin-FrTC or streptavidin-TRITC (Molecular Probes, the Netherlands). The cell nuclei were stained with Hoechst 33258 (0.5 μg/ml) for 5 min, after which the cover slips were washed 3 times with PBS and mounted in 25% glycerol in PBS. The images were obtained with a Leica DM IRE2 fluorescence microscope (Leica Microsystem., Sweden) and processed in PhotoShop 6.0 software (Adobe Systems Inc., CA) (See e.g. FIG. 38-40).
molecule,measurement,setting,value
COc1ccc2c(c1)CC[C@@H]1[C@@H]2CC[C@]2(C)[C@@H](NCCCCCCN3C(=O)C=CC3=O)CC[C@@H]12 [Peptide U73122],effect on tonus of the artery,[1]; 30 μM,did not affect tonus
same,effect on M511-induced contraction after posterior administration,"[1]; 30 μM, 16 μM M511",did not modify blood vessel contraction
same,decrease of the effect of M511,"[1]; 30 μM, added 30 minutes prior to 16 μM M511",more than 50%
IAIAKLAA amide (IAIAKLAA-NH2) [GOP11],Insulin release at 16.7 mM glucose,pancreatic islets; 10 μM peptide,inh−
same,Insulin release at 3.3 mM glucose,pancreatic islets; 100 μM peptide,inh−
same,Insulin release at 16.7 mM glucose,pancreatic islets; 100 μM peptide,inh−−
IAIAKLKA amide (IAIAKLKA-NH2) [GOP4],Insulin release at 16.7 mM glucose,pancreatic islets; 10 μM peptide,inh−−
same,Insulin release at 3.3 mM glucose,pancreatic islets; 100 μM peptide,inh−
same,Insulin release at 16.7 mM glucose,pancreatic islets; 100 μM peptide,inh−
IATVIFITLVMLKKK [APP (712-726) V717F mutant],aggregation on addition to the 24-well plate,[2],formed aggregates
same,cellular internalisation,[2],do not reveal any no uptake
IATVIVITLVMLKKK [APP (712-726) WT],aggregation on addition to the 24-well plate,[2],formed aggregates
same,cellular internalisation,[2],do not reveal any no uptake
IVIAKLAA amide (IVIAKLAA-NH2) [GOP5],Insulin release at 16.7 mM glucose,pancreatic islets; 10 μM peptide,inh−
same,Insulin release at 3.3 mM glucose,pancreatic islets; 100 μM peptide,no
same,Insulin release at 16.7 mM glucose,pancreatic islets; 100 μM peptide,no
IVIAKLKA amide (IVIAKLKA-NH2) [GOP],stimulation of insulin release,"pancreatic islets; 10 μM GOP, 3.3 mM glucose, p<0.001",5 fold
same,Insulin release at 16.7 mM glucose,pancreatic islets; 10 μM peptide,stim+
same,Insulin release at 3.3 mM glucose,pancreatic islets; 100 μM peptide,no
same,Insulin release at 16.7 mM glucose,pancreatic islets; 100 μM peptide,stim++
same,stimulation of insulin release,"pancreatic islets; 1 and 10 FM GOP, 16.7 mM glucose",4 fold
same,plasma insulin,"[3]; 100 nmol/kg i.p. + glucose 1 g/kg, after 10 min, vs control rats p<0.05",increased significantly
same,blood glucose levels,"[3]; 100 nmol/kg i.p. + glucose 1 g/kg, at 10 min, vs control rats p<0.02",significantly lower
same,insulin and glucose levels vs control rats,[3]; after 30 min,no differences
IVIAKLKANLMCKTCRLAK-amide (IVIAKLKANLMCKTCRLAK-NH2; cysteine pairing not given here) [Peptide M569],cellular penetration,[4]; 37° C. and 4° C.,temperature independent penetration
same,cellular localisation,"[4]; Bowes cells, 37° C.",both cytosolic and plasma membrane localisation
IVIAKLRA amide (IVIAKLRA-NH2) [GOP3],Insulin release at 16.7 mM glucose,pancreatic islets; 10 μM peptide,stim+
same,Insulin release at 3.3 mM glucose,pancreatic islets; 100 μM peptide,stim++
same,Insulin release at 16.7 mM glucose,pancreatic islets; 100 μM peptide,stim++
IVVSKLKA amide (IVVSKLKA-NH2) [GOP16],Insulin release at 16.7 mM glucose,pancreatic islets; 10 μM peptide,no
same,Insulin release at 3.3 mM glucose,pancreatic islets; 100 μM peptide,no
same,Insulin release at 16.7 mM glucose,pancreatic islets; 100 μM peptide,no
KKAAQIRSQVMTHLRVI [APP (521-536)],cellular localisation,[2],both in the nucleus and the membrane
same,cellular internalisation,[2],has cell-penetrating abilities
LRSWRVIIRNGQR [LRSW-3],% of added fluorescence in cell lysate,Bowes cells,1.9%
LRSWVISRSIRKAA [LRSW-1],% of added fluorescence in cell lysate,Bowes cells,1.4%
MANLGYWLLALFVTMWTDVGLCKKRPKP [mouse PrPC(1-28)],cargo delivery,N2A cells,ability to carry a cargo avidin into cells
same,cell-penetrating activity,N2A cells,is indeed a CPP
same,cellular localization,N2A cells,perinuclear localization
SGESLAY-YTAIAWVKAFIRKLRK (SGESLAYYTAIAWVKAFIRKLRK) [YTA-2ps],% of added fluorescence in cell lysate,Bowes cells,3.5%
same,Comment (staining/localisation),LoVo cells,bind the plasma
Sar^1-Thr^8-angiotensin II,effect on contraction induced by M511,[1]; 45 μM antagonist,unable to affect
same,effect on contraction induced by angiotensin II,[1]; 45 μM antagonist,able to revert
TP10 [reference compound],% of added fluorescence in cell lysate,Bowes cells,1.8%
Transportan [reference compound],% of added fluorescence in cell lysate,Bowes cells,10.5%
VATKSVSVFYTRK [presenilin-1 (97-109) deletion analogue],cellular localisation,[2],mostly localised in the cytosole
same,cellular internalisation,[2],showed cell-penetrating abilities
VVLYKYRCYKVI [presenilin-1 (151-162)],cellular internalisation,[2],Identical increase in fluorescence
all-D-(IVIAKLKA) amide ([dI][dV][dI][dA][dK][dL][dK][dA]-NH2; N-terminus assumed; SMILES CC[C@@H](C)[C@@H](N)C(=O)N[C@@H](C(=O)N[C@@H](C(=O)N[C@H](C)C(=O)N[C@H](CCCCN)C(=O)N[C@H](CC(C)C)C(=O)N[C@H](CCCCN)C(=O)N[C@H](C)C(N)=O)[C@H](C)CC)C(C)C) [GOP6],Insulin release at 16.7 mM glucose,pancreatic islets; 10 μM peptide,inh−
same,Insulin release at 3.3 mM glucose,pancreatic islets; 100 μM peptide,stim+
same,Insulin release at 16.7 mM glucose,pancreatic islets; 100 μM peptide,no
"angiotensin: angiotensin II, AT1 receptor agonist",contraction effect compared with 30 mM KCl,[1]; 1 μM,almost the same as the effect of 30 mM KCl

# Reference: patent US20080234183A1, “Cell Penetrating Peptides” (priority 2002, published 2008)
